Data: patent publication US20230124142A1, “NEW THERAPEUTIC TARGETS WITH AN ANTI-INFLAMMATORY AND ANTI-INTERFERON EFFECT” (UNIVERSITÉ PARIS CITÉ, priority 2020, published 2023)

How the values were obtained:
[1] = system: peripheral blood mononuclear cells (PBMCs) of healthy donors; experiment: Secretion of inflammatory cytokines and interferons by PBMCs after TLR7/8 (R848) stimulation, LegendPlex
activated immune cells = experiment: Secretion of inflammatory cytokines and interferons by activated immune cells placed in contact with ROCK inhibitor; type: cell-based; conditions: compared with activated immune cells not placed in contact with the inhibitor
[2] = system: peripheral blood mononuclear cells (PBMCs); experiment: Cell toxicity on PBMCs, ATP quantification with CellTiter Glo; type: cell-based, human; conditions: cGAMP 24 h
[3] = system: THP1-Dual human monocyte cell line; experiment: Cell toxicity on THP1-Dual, ATP quantification with CellTiter Glo; type: cell-based; conditions: cGAMP 24 h
[4] = system: HEK293 non-immune cell line; experiment: Interferon production by cGAMP-activated HEK293 non-immune cells (STING-37), luciferase; conditions: inhibitor at 1 μM (FIG. 23C)
[5] = system: neurones infected by the prions; type: cell-based
[6] = system: peripheral blood mononuclear cells (PBMCs); experiment: Interferon production by cGAMP-activated PBMCs, STING-37 reporter cell line; conditions: inhibitor 1 h before cGAMP 3 μg/ml, 24 h, STING-37 reporter (FIG. 22A, 23A)
[7] = system: THP1-Dual human monocyte cell line; experiment: Interferon response of cGAMP-activated THP1-Dual cells, luciferase; conditions: inhibitor 1 h before cGAMP 3 μg/ml, 24 h, luciferase (FIG. 22B, 23B)
[8] = system: monocytes of healthy donors; experiment: Intracellular TNFα production in monocytes after TLR4 (LPS) stimulation, flow cytometry; type: cell-based, human; conditions: inhibitor 1 h before LPS (TLR4) 100 ng/ml, 16 h, flow cytometry (FIG. 5)
Method: (§1) The cells were rinsed in PBS then incubated with a viability dye (Zombie Aqua, Biolegend) for 30 min at ambient temperature. After washing, the cells were resuspended in PBS containing 2% SVF and 2 mM EDTA then labelled with the APC Vio770 anti-CD14 (clone REA599) antibody from Miltenyi Biotec, used at 1/100°. […] The cells were fixed for 20 min at ambient temperature with 250 μL Inside Fix solution then labelled in 100 μL Inside Perm solution containing the PE anti-TNFα (Miltenyi Biotec) and/or APC anti-IL-1β (Miltenyi Biotec) antibody at 1/50° for 30 min at ambient temperature. Data acquisition was carried out on the Canto II flow cytometer using the Diva software (BD Biosciences, San Jose, Calif.). The Kaluza software was used to analyze the data.

[9] = system: peripheral blood mononuclear cells (PBMCs) of healthy donors; experiment: Interferon secretion by R848-stimulated PBMCs, inhibitor before, during or after stimulation, STING-37 reporter cell line; type: cell-based, human
[10] = system: peripheral blood mononuclear cells (PBMCs) of healthy donors; experiment: Toxicity on PBMCs (CellTiter-Glo), HIV; type: cell-based, human; conditions: PBMCs of healthy donors infected with HIV, 24 h, CellTiter-Glo (FIG. 14)
Method: (§2) After 24 h of cell culture, the cell viability was determined using the CellTiter-Glo reagent (Promega), which evaluates the amount of ATP by luminescence using the EnSpire.

[11] = system: peripheral blood mononuclear cells (PBMCs) of healthy donors; experiment: Toxicity on PBMCs (CellTiter-Glo), TLR7/8 stimulation; type: cell-based, human; conditions: TLR 7/8 stimulation, 24 h, CellTiter-Glo (FIG. 4)
Method: Test for toxicity of the compounds on the peripheral blood mononuclear cells (PBMCs).
as §2

[12] = system: monocytes of healthy donors; experiment: Intracellular IL1β and TNFα in monocytes after inflammasome activation by uric acid crystals (MSU, gout model), flow cytometry; type: cell-based, human
Method: (§3) The cells were rinsed in PBS then incubated with a viability dye (Zombie Aqua, Biolegend) for 30 min at ambient temperature. After washing, the cells were resuspended in PBS containing 2% SVF and 2 mM EDTA then labelled with the APC Vio770 anti-CD14 (clone REA599) antibody from Miltenyi Biotec, used at 1/100°. […] Data acquisition was carried out on the Canto II flow cytometer using the Diva software (BD Biosciences, San Jose, Calif.). The Kaluza software was used to analyze the data.

[13] = system: monocytes of healthy donors; experiment: Intracellular TNFα production in monocytes after TLR7/8 (Resiquimod-R848) stimulation, flow cytometry; type: cell-based, human; conditions: inhibitor 1 h before R848 (TLR7/8), 16 h, flow cytometry (FIG. 1, 2)
Method: as §3, with “[…]” for “II”

[14] = system: immune cells (PBMCs and purified monocytes) of healthy donors; experiment: Production of inflammatory cytokines by PBMCs and purified monocytes after TLR2/4 stimulation by bacterial agents; type: cell-based, human; conditions: TLR 2/4 stimulation by lipoteichoic acid/LPS
[15] = system: monocytes of patients suffering from juvenile idiopathic arthritis; experiment: Spontaneous TNFα production by monocytes of juvenile idiopathic arthritis patients, SIMOA (digital ELISA); type: cell-based, human; conditions: inhibitor 24 h, SIMOA (FIG. 16)
Method: The assay of the TNFα secreted by the monocytes of a patient suffering from juvenile idiopathic arthritis was carried out by SIMOA (digital ELISA).

[16] = system: peripheral blood mononuclear cells (PBMCs) of healthy donors; experiment: Secretion of inflammatory cytokines and interferons by PBMCs after TLR4 stimulation, LegendPlex; type: cell-based, human; conditions: 24 h, LegendPlex (FIG. 7)
[17] = system: peripheral blood mononuclear cells (PBMCs) of healthy donors; experiment: Secretion of inflammatory cytokines and interferons by PBMCs in response to HIV, LegendPlex; type: cell-based, human; conditions: 24 h, LegendPlex (FIG. 13)
[18] = system: plasmacytoid dendritic cells (pDC) of healthy donors; experiment: Intracellular IFNα and TNFα in plasmacytoid dendritic cells in response to HIV, flow cytometry; type: cell-based, human; conditions: AT-2-inactivated HIV-1MN, 16 h
Method: The cells were rinsed in PBS then incubated with a viability dye (Zombie Aqua, Biolegend) for 30 min at ambient temperature. After washing, the cells were resuspended in PBS containing 2% SVF and 2 mM EDTA then labelled with the APC Vio770 anti-CD14 (clone REA599) antibody from Miltenyi Biotec, used at 1/100°. For the intracellular labelling of TNFα and IFNα, the “Inside Stain” kit (Miltenyi Biotec) was used according to the manufacturer's protocol. The cells were fixed for 20 min at ambient temperature with 250 μL Inside Fix solution then labelled in 100 μL Inside Perm solution containing the APC anti-TNFα (Miltenyi Biotec) and/or PE anti-IFNα (Miltenyi Biotec) antibody at 1/50° for 30 min at ambient temperature. Data acquisition was carried out on the Canto II flow cytometer using the Diva software (BD Biosciences, San Jose, Calif.). The Kaluza software was used to analyze the data.

[19] = system: monocytes of healthy donors; experiment: Intracellular TNFα production in monocytes after TLR2 (lipoteichoic acid, LTA) stimulation, flow cytometry; type: cell-based, human; conditions: inhibitor 1 h before LTA (TLR2) 1 μg/ml, 16 h, flow cytometry (FIG. 6)
Method: as §1

[20] = system: peripheral blood mononuclear cells (PBMCs) of healthy donors; experiment: Toxicity on PBMCs (CellTiter-Glo), TLR4 stimulation; type: cell-based, human; conditions: 24 h, CellTiter-Glo (FIG. 8)
Method: as §2

[21] = PBMCs of healthy donors, inhibitor 1 h before R848 (TLR7/8), 24 h, LegendPlex (FIG. 3)

**Q.** Which “production of TNFα and of pro-inflammatory cytokines such as IL-6, IL-1β and the interferons induced by the TLR7/8 stimulation” value ([1]; human PBMCs incubated with inhibitor before R848 stimulation) does the source give for `Cc1cncc2cccc(S(=O)(=O)N3CCCNCC3C)c12` (stereo not drawn) [dimethylfasudil] here?
**A.** inhibits the production

**Q.** What about the “secretion of the inflammatory cytokines (TNFα, IL-1β, IL6, MCP1 (CCL2)) and of the interferons (IFN)” value (activated immune cells) of the same compound?
**A.** inhibits the secretion

**Q.** And the “viability of the PBMCs” value [2]?
**A.** without affecting the viability

**Q.** What about the “viability of the THP1-Dual” value [3] of the same compound?
**A.** without affecting the viability

**Q.** What about the “production of interferon induced by the STING ligand” value [4] of the same compound?
**A.** does not block

**Q.** What about the “level of TNFα in the culture medium” value [5] of the same compound?
**A.** re-establishes a “normal” level

**Q.** What about the “production of interferons (IFN) induced by the cGAMP” value [6] of the same compound?
**A.** blocks the production of interferons (IFN) induced by the cGAMP according to a dosage effect starting from 1 μM

**Q.** And the “production of interferons (IFN) induced by the cGAMP” value [7]?
**A.** blocks the production of interferons (IFN) induced by the cGAMP according to a dosage effect starting from 1 μM

**Q.** What does the source list for BX912?
**A.** production of inflammatory cytokines (TNFα) [8]: inhibits, according to a dosage effect; secretion of the inflammatory cytokines (IL-6, IL-1β, TNFα, IP10, GM-CSF, IL-10) [1, 21]: inhibits the secretion; secretion of the interferons (IFNI1, IFNI2/3, IFNβ, IFNg) [1, 21]: inhibits the secretion; secretion of interferons ([9]; inhibitor during the TLR 7/8 stimulation, STING-37 reporter (FIG. 15B)): blocking; secretion of interferons ([9]; inhibitor in a curative manner, 1 h after TLR 7/8 stimulation, STING-37 reporter (FIG. 15C)): blocking; secretion of interferons ([9]; inhibitor in a preventive manner, 1 h before TLR 7/8 stimulation, STING-37 reporter (FIG. 15A)): blocking; toxicity on PBMCs [10]: no toxicity; toxicity on the immune cells (PBMCs) [11]: no toxicity; production of inflammatory cytokines ([12]; activation of the inflammasome by uric acid crystals (mimicking gout)): capable of inhibiting the production of inflammatory cytokines; intracellular production of IL1β ([12]; uric acid crystals (MSU) 50 μg/ml, 16 h, gout model (FIG. 9)): inhibits the intracellular production; production of TNFα ([12]; uric acid crystals (MSU) 50 μg/ml, 16 h, gout model (FIG. 10)): inhibits the production; intracellular production of inflammatory cytokines (TNFα) [13]: inhibits, according to a dosage effect; production of inflammatory cytokines [14]: capable of inhibiting the production of inflammatory cytokines; spontaneous production of TNFα [15]: inhibits the spontaneous production; secretion of the inflammatory cytokines (IL-6, IL-1β, TNFα, GM-CSF, IL-10) [16]: inhibits the secretion; secretion of the interferons (IFNI2/3, IFNβ, IFNg) [16]: inhibits the secretion; secretion of the inflammatory cytokines (IL-6, IL-1β, TNFα, IP10) [17]: inhibits the secretion; secretion of the interferons (IFNα2, IFNβ, IFNI1) [17]: inhibits the secretion; intracellular production of interferon IFNα ([18]; flow cytometry (FIG. 11)): inhibits the intracellular production; production of TNFα ([18]; flow cytometry (FIG. 12)): inhibits the production; production of inflammatory cytokines (TNFα) [19]: inhibits, according to a dosage effect; toxicity on PBMCs [20]: no toxicity
